Experimental data published in PubChem BioAssay AID1996.
In brackets after ≈: the same amount, converted by molar mass.

Settings: buffer; pH 7.4; 200.0 µM
Work on `CC(C)(C)[C@]1(O)CCN2C[C@H]3c4ccccc4CCc4cccc(c43)[C@@H]2C1.Cl` yielded a solubility kinetic of 59.3 µg/mL.
For `Cc1ccccc1C(=O)NC(C(N)=O)P(=O)(OC(C)C)OC(C)C` (stereo not given), the solubility kinetic was over 53.5 µg/mL.
With `CC1(C)Cc2c(C#N)c(NCCO)nc(-c3ccco3)c2CO1` the solubility kinetic was 37.4 µg/mL (≈ 119 µM).
In the case of `CCc1nonc1NC(=O)c1oc2c(C)c(C)ccc2c1C`, the solubility kinetic is reported as 0.6 µg/mL (≈ 2 µM).
`C#CCN1C(=O)C2(OCCO2)c2ccccc21` showed a solubility kinetic of over 34.4 µg/mL.
`Cc1noc(C)c1COC(=O)/C=C/c1ccc(Cl)cc1` gave a solubility kinetic of 6.4 µg/mL (≈ 21.9 µM).
`Brc1ccc(-c2cnco2)cc1` showed a solubility kinetic of 2.2 µg/mL (≈ 9.82 µM).
For `Cc1ccc2nc(Cn3cc(C(F)(F)F)ccc3=O)cc(=O)n2c1`, the solubility kinetic was 47.4 µg/mL (≈ 141 µM).
`CC(Cl)C(=O)Nc1cc(C(C)(C)C)nn1-c1ccccc1` (stereo not given) showed a solubility kinetic of over 45.9 µg/mL.
`C(#CC12CC3CC(CC(C3)C1)C2)CN1CCOCC1` gave a solubility kinetic of 17.8 µg/mL (≈ 68.6 µM).
In the case of `CCCCN(CC)C(=O)c1cc2c(=O)[nH]c3ccc(C)cc3c2s1`, the solubility kinetic is reported as 0.5 µg/mL (≈ 1.46 µM).
With `CCOc1ccccc1N1CCN(C(=O)NCc2ccc(C)cc2)CC1` the solubility kinetic was over 53 µg/mL.
Work on `COc1cccc(NC(=O)N2CCCC(C(=O)NC3CCCCC3C)C2)c1` (stereo not given) yielded a solubility kinetic of 6.4 µg/mL (≈ 17.1 µM).
Compound `COC(=O)Cn1c2ccc(Cl)cc2c2nc(C)sc21` has a solubility kinetic of 35.3 µg/mL (≈ 120 µM).
`CC(=O)c1c(C)nc(-c2cccc([N+](=O)[O-])c2)n1O` gave a solubility kinetic of over 39.2 µg/mL.
With `O=C(NC1CCCCC1)N1CCc2ccccc2C1` the solubility kinetic was over 38.8 µg/mL.
`COc1ccc(C(=O)COC(=O)C2CCC(=O)N2)cc1` (stereo not given) showed a solubility kinetic of over 41.6 µg/mL.
For `CC(C)CNC(=O)CN1C(=O)NC2(CCc3ccccc32)C1=O` (stereo not given), the solubility kinetic was over 47.3 µg/mL.
With `Cc1ccc(N(Cc2cc(=O)[nH]c3ccccc23)C(=O)C(C)C)cc1` the solubility kinetic was 47.5 µg/mL (≈ 142 µM).
`O=C1NC(=Nc2ccccc2)S/C1=C\c1cccnc1` gave a solubility kinetic of 2 µg/mL (≈ 7.11 µM).
With `N/C(=N\OC(=O)Nc1ccccc1)c1ccno1` the solubility kinetic was 24.2 µg/mL (≈ 98.3 µM).
`CC(=O)c1c(C)n(CC(=O)NCc2ccco2)c2ccccc12` showed a solubility kinetic of 18.5 µg/mL (≈ 59.6 µM).
`O=C(Nc1cccnc1)c1cc(-c2ccccc2O)on1` showed a solubility kinetic of 1.3 µg/mL (≈ 4.62 µM).
`CN1CCCN(Cc2nc(-c3ccc(Cl)cc3)no2)CC1` showed a solubility kinetic of 40.4 µg/mL (≈ 132 µM).
For `Cc1ccc(C(=O)NCCCN2CCOCC2)cc1Cl`, the solubility kinetic was 42.5 µg/mL (≈ 143 µM).
In the case of `CCOc1ccc(NC(=O)C(CC(=O)O)Cc2ccc(C)cc2)cc1` (stereo not given), the solubility kinetic is reported as over 51.2 µg/mL.
In the case of `O=C(O)C1C2CCC(C2)C1C(=O)NCCc1ccc(F)cc1` (stereo not given), the solubility kinetic is reported as over 45.8 µg/mL.
Work on `FC(F)(F)c1ccccc1CNCc1ccncc1` yielded a solubility kinetic of 29.4 µg/mL (≈ 110 µM).
`CC(=O)Nc1cccc(-c2csc(Nc3ccc(Cl)cn3)n2)c1` gave a solubility kinetic of 0.5 µg/mL (≈ 1.45 µM).
With `CNc1ccc(S(=O)(=O)NC)cc1[N+](=O)[O-]` the solubility kinetic was over 36.8 µg/mL.
`CCC(=O)NCCc1nc2cc(NC(=O)Nc3ccccc3)ccc2n1C` gave a solubility kinetic of over 54.8 µg/mL.
In the case of `CCCN(CCC)C(=O)CC(c1ccccc1)c1ccco1` (stereo not given), the solubility kinetic is reported as over 44.9 µg/mL.
Work on `O=C(N/N=C/C1CCCCC1)c1ccccc1-n1cccc1` yielded a solubility kinetic of over 44.3 µg/mL.
`Nc1cccc(S(=O)(=O)Nc2ccccc2)c1` showed a solubility kinetic of over 37.2 µg/mL.
In the case of `O=S(=O)(c1cccc2cccc(Cl)c12)N1CCCC1`, the solubility kinetic is reported as 15 µg/mL (≈ 50.7 µM).
Compound `Cc1cc(C(=O)Nc2cccc(NC(=O)c3ccco3)c2)ccc1[N+](=O)[O-]` has a solubility kinetic of 0.5 µg/mL (≈ 1.37 µM).
`O=c1[nH]cnc2onc(-c3ccc(F)cc3)c12` showed a solubility kinetic of over 34.7 µg/mL.
For `Cc1ccc(-c2onc3ccc(Br)cc23)cc1`, the solubility kinetic was under 0.6 µg/mL.
With `CC1(C)CC(NC(=O)c2cccc(F)c2)CC(C)(C)N1` the solubility kinetic was 40.8 µg/mL (≈ 147 µM).
Work on `O=C(Cc1ccccc1)NC(Cc1ccc(Cl)cc1)C(=O)O` (stereo not given) yielded a solubility kinetic of over 47.7 µg/mL.
With `O=C(O)CCCN1C(=O)/C(=C/c2ccncc2)SC1=S` the solubility kinetic was over 46.3 µg/mL.
Work on `CCCOC(=O)c1ccc(NC(=O)Cc2cccs2)cc1` yielded a solubility kinetic of 24 µg/mL (≈ 79.1 µM).
For `CCCC(=O)Nc1cc2c3c(c1)CCN3C(=O)CC2`, the solubility kinetic was over 38.7 µg/mL.
In the case of `Cc1cccc(C)c1NC(=O)CN1CCCC1`, the solubility kinetic is reported as 31.3 µg/mL (≈ 135 µM).
`COc1ccccc1NC(=O)COC(=O)c1oc2ccccc2c1C` showed a solubility kinetic of 6 µg/mL (≈ 17.7 µM).
With `O=C(Nc1ccc(F)cc1F)c1cc(Cl)sc1Cl` the solubility kinetic was under 0.7 µg/mL.
`CCCCc1cc(=O)oc2cc(OCC(=O)N3CCOCC3)ccc12` showed a solubility kinetic of 19.2 µg/mL (≈ 55.6 µM).
Compound `CC(NC(=O)c1cc2cc([N+](=O)[O-])ccc2oc1=O)C1CCCO1` (stereo not given) has a solubility kinetic of 36.5 µg/mL (≈ 110 µM).
With `Cc1ccc(-c2ccc(OC(=O)c3ccc(=O)[nH]c3)c(C)c2)cc1` the solubility kinetic was under 0.7 µg/mL.
Work on `COC(=O)c1sccc1NC(=O)c1c(F)c(F)c(F)c(F)c1F` yielded a solubility kinetic of under 0.8 µg/mL.
`CC(=O)Nc1ccc(C(=O)COC(=O)Cc2ccsc2)c(F)c1` gave a solubility kinetic of over 50.3 µg/mL.
In the case of `CC(=O)Oc1ccc(-c2ccc(C(=O)OCC(=O)c3c(N)n(C)c(=O)n(C)c3=O)cc2)cc1`, the solubility kinetic is reported as 3.2 µg/mL (≈ 7.09 µM).
With `CC(=O)Nc1ccc(NS(=O)(=O)c2ccc3c(c2)oc(=O)n3C)cc1` the solubility kinetic was over 54.2 µg/mL.
`C[n+]1cc(-c2ccccc2)oc1-c1ccccc1` showed a solubility kinetic of 24.4 µg/mL.
In the case of `CC(=O)c1ccc(-c2ccc(C(=O)NCC3CCCO3)o2)cc1` (stereo not given), the solubility kinetic is reported as over 47 µg/mL.
With `O=C(Cc1ccccc1)Oc1ccc([N+](=O)[O-])cc1` the solubility kinetic was over 38.6 µg/mL.
In the case of `O=C1NC(=S)NC(=O)C1=Cc1ccc(Br)s1`, the solubility kinetic is reported as 44.3 µg/mL (≈ 140 µM).
Compound `COC(=O)C(c1ccccc1)C1(O)CC(C)N(C)CC1C` (stereo not given) has a solubility kinetic of over 43.7 µg/mL.
With `CC(=O)Nc1nc(C)c(Oc2ccc(C)cc2)c(=O)[nH]1` the solubility kinetic was 39.6 µg/mL (≈ 145 µM).
`COc1ccc(O)c(CNc2ccccc2F)c1` gave a solubility kinetic of 34 µg/mL (≈ 138 µM).
For `CC(=O)N1CCN(S(=O)(=O)c2cccc(C(=O)NCc3ccc(F)cc3)c2)CC1`, the solubility kinetic was over 62.9 µg/mL.
For `Cn1c(/C=C/c2cccc([N+](=O)[O-])c2)c([N+](=O)[O-])c(=O)n(C)c1=O`, the solubility kinetic was 48.6 µg/mL (≈ 146 µM).
For `Clc1cccc(Cl)c1-c1noc(-c2ccno2)n1`, the solubility kinetic was 28.6 µg/mL (≈ 101 µM).
`COc1ccccc1NC(=O)CN(Cc1ccco1)C(=O)c1ccc(N2CCCC2=O)cc1` showed a solubility kinetic of 64.9 µg/mL (≈ 145 µM).
`Cc1cccc(NC(=O)c2cc(-c3ccccn3)nc3ccccc23)c1C` gave a solubility kinetic of 3.5 µg/mL (≈ 9.9 µM).
For `Cc1ccc2[nH]c(CSc3ccccc3)cc(=O)c2c1`, the solubility kinetic was 14.9 µg/mL (≈ 53 µM).
Work on `Cc1cc2oc(=O)cc(CN3CCOCC3)c2cc1O` yielded a solubility kinetic of over 41.3 µg/mL.
Work on `COc1ccc(-c2noc(CN(C(=O)c3ccoc3C)C(C)C)n2)cc1` yielded a solubility kinetic of 38.7 µg/mL (≈ 109 µM).
In the case of `O=C(COc1ccccc1)NS(=O)(=O)c1ccc(Cl)cc1`, the solubility kinetic is reported as over 48.9 µg/mL.
`O=c1cc(NCCc2ccccc2)c2ccccc2o1` gave a solubility kinetic of 1.1 µg/mL (≈ 4.15 µM).
Compound `CCc1ccc(NC(=S)N(Cc2ccccc2)Cc2ccccn2)cc1` has a solubility kinetic of 2.4 µg/mL (≈ 6.64 µM).
`COc1cccc(C(=O)NCCNC(=O)c2ccccn2)c1` gave a solubility kinetic of over 44.9 µg/mL.
Compound `CCCc1ccc2oc(C(=O)N3CCC(COC)C3)c(C)c2c1` (stereo not given) has a solubility kinetic of 24.7 µg/mL (≈ 78.3 µM).
With `CCOC(=O)c1c(/N=C/c2ccc(C)cc2O)sc2c1CCN(C)C2` the solubility kinetic was 11.6 µg/mL (≈ 32.4 µM).
Compound `O=C(OCc1ccccc1F)c1cnc(Cl)c(Cl)c1` has a solubility kinetic of 1.6 µg/mL (≈ 5.33 µM).
`CNC(=O)c1ccccc1-c1cn(C)c2ccccc2c1=O` gave a solubility kinetic of over 43.9 µg/mL.
In the case of `COc1ccc(NC(=O)c2ccccc2NC(=O)c2cccs2)cc1`, the solubility kinetic is reported as under 0.4 µg/mL.
Compound `COc1ccc(NC(=O)CN2CCN(C(C)=O)CC2)cc1S(=O)(=O)N1CCOCC1` has a solubility kinetic of over 66.1 µg/mL.
`O=C(COC(=O)c1c(F)cccc1F)c1ccc[nH]1` showed a solubility kinetic of 39.3 µg/mL (≈ 148 µM).
With `Cc1cccc(C(=O)NCC(=O)NC(C)CCc2ccccc2)c1` (stereo not given) the solubility kinetic was 40.8 µg/mL (≈ 126 µM).
`COc1ccc(N2CC(C(=O)N3CCN(C)CC3)CC2=O)cc1` (stereo not given) showed a solubility kinetic of 43.8 µg/mL (≈ 138 µM).
`O=C(CCC(=O)N1CCN(c2ccccc2F)CC1)c1ccc(Cl)s1` showed a solubility kinetic of 19.5 µg/mL (≈ 51.2 µM).
For `O=C(CCNS(=O)(=O)c1ccccc1C(F)(F)F)NCCCN1CCOCC1`, the solubility kinetic was over 63.5 µg/mL.
`CC(C)NC(=O)N1CCC(c2nc3ccccc3s2)CC1` showed a solubility kinetic of over 45.5 µg/mL.
For `C=CCn1cc(Cl)cc(C(=O)Nc2ccccc2)c1=O`, the solubility kinetic was 6.9 µg/mL (≈ 23.9 µM).
